Data as given in PMC6443933, “Antagonizing Retinoic Acid-Related-Orphan Receptor Gamma Activity Blocks the T Helper 17/Interleukin-17 Pathway Leading to Attenuated Pro-inflammatory Human Keratinocyte and Skin Responses” (Frontiers in Immunology, 2019).
* marks the point of attachment. Biotin = O=C1N[C@H]2[C@H](CS[C@H]2CCCCC(=O)*)N1; Ahx = NCCCCCC(=O)O

Key:
[1] = tested on: STAT3 phosphorylation in Ba/F3 cells stably expressing the human IL-21 receptor; assay: IL-21-induced phospho-STAT3 by flow cytometry; assay type: cell-based; settings: 1 μM, 1 h pre-incubation
Procedure: To assess whether Cpd A affected STAT3 activity we induced STAT3 phosphorylation in Ba/F3 cells stably expressing the human IL-21 receptor (kindly provided by Dr. Max Warncke, Novartis). Cells were pre-incubated for 1 h with 10 μM of Cpd A or with 1 μM of the pan-JAK inhibitor CP690550. To induce STAT3 activity, the cells were stimulated for 1.5 h with recombinant human IL-21 (3 nM), followed by two washing steps using buffer containing PBS/0.5% BSA. The cells were fixed with 2% paraformaldehyde for 15 min at room temperature, washed and resuspended in ice-cold 90% methanol solution and stored overnight at −20°C. The samples were washed and stained for 1 h with an Alexa 647-labeled anti-phospho (pY705)-STAT3 antibody (BD biosciences). After two washes the cells were analyzed using a LSR Fortessa (BD Bioscience) and analyzed using FlowJo software (Tree Star).

[2] = tested on: HUT78 T-cells stably expressing full-length eGFP-RORγt; assay: IL-17A / IL-2 production by RORγt transduced HUT78 T-cell line; assay type: cell-based, human; settings: PMA plus anti-CD3, 48 h, ELISA
total human CD4+ T-cells = assay: Th17 polarization of total CD4+ T-cells, cytokine ELISA; assay type: cell-based; settings: total CD4+ T-cells, Th17 polarization 72 h, ELISA; read-out: IC50, IL-17A secretion
Procedure: Total, naive and memory CD4^+ T cells were isolated from Peripheral blood mononuclear cells (PBMCs) from healthy volunteers by density gradient centrifugation using Ficoll Paque (GE). Total, naive or memory CD4^+ T-cells were prepared by immunomagnetic separation using the respective CD4^+ T-cell enrichment kits resulting in untouched highly purified subsets (EasySep™, Stem Cell). Purity was assessed by flow cytometry and was between 95 and 98% for the total CD4^+ T-cells. The purity of naive (CD45RA^+CD45RO^−) and memory (CD45RA^−CD45RO^+) CD4^+T-cells ranged between 95 and 98%, respectively. For T-cell stimulation experiments, cells were treated as previously published ([44]). Briefly, T-cells were stimulated with plate-bound monoclonal antibodies against CD3 (1 μg/ml, clone OKT-3, BioXcell) and CD28 (1 μg/ml, clone CD28.2, BioLegend). For Th17 polarization assays, IL-6 (20 ng/ml), TGF-β1 (5 ng/ml), IL-1β (10 ng/ml), and IL-23 (10 ng/ml) were added. For Th1 polarization assays, IL-12 (10 ng/ml) and anti-IL-4 antibody (5 μg/ml), for Th2 polarizations, IL-4 (10 ng/ml) and anti-IFN-γ antibody (5 μg/ml) were added. For Th0 polarization assays, cells were only stimulated with CD3 and CD28 antibodies. Supernatants were collected after 3 or 7 days of incubation for total or naive/memory CD4^+ T-cell polarizations, respectively. Cytokine concentrations were quantified by ELISA according to the manufacturer's instructions (eBioscience or BioLegend).

NHEKs = assay: IL-17A/TNFα spike-in in primary keratinocytes (NHEKs), qRT-PCR; assay type: cell-based, human; settings: 0.75 μg/ml; similar to TNFα stimulation
Procedure: The HaCaT keratinocyte cell line was purchased from AddexBio and was maintained in RPMI 1640 medium supplemented with Glutamax, Penicillin/Streptomycin (all from Gibco) and 10% FCS (PAA). Normal primary human epidermal keratinocytes (NHEKs) were purchased from Lonza and PromoCell, respectively. Cells were cultured in Keratinocyte basal growth medium (KBM; Lonza) containing KGM2 growth supplements including insulin, human epidermal growth factor, bovine pituitary extract, hydrocortisone, epinephrine, transferrin, and gentamicin/amphotericin B (Lonza). HaCaT cells were incubated in a 96-well-microtiter plate (2 × 10^4 cells/well) with Th17 cytokine-containing supernatants obtained from total CD4^+ T-cells that were polarized for 72 h in the presence of anti-CD3/CD28 antibodies and a Th17 polarization cocktail as described above. […] Cytokine concentrations in supernatants were determined from representative experiments and they contained approximately 150 pg/ml or 600 pg/ml of IL-17 in 10 μM or in 0.13 nM treated samples, respectively. […]
Total RNA from human Th17 cells (6 × 10^5 cells), RORγt-RORE HUT78 cells (4 × 10^5 cells) and HaCaT cells (6 × 10^4 cells) was extracted using RNeasy kit including a DNAse I digestion step according to the manufacturer‘s protocol (Qiagen). […] Quantitative RT-PCR analysis was performed using a TaqManViiA7 (Applied Biosystems). […]

HaCaT keratinocytes = assay: IL-17-driven HaCaT keratinocyte responses (Th17 supernatants or spiked cytokines), qRT-PCR; assay type: cell-based, human
Procedure: The HaCaT keratinocyte cell line was purchased from AddexBio and was maintained in RPMI 1640 medium supplemented with Glutamax, Penicillin/Streptomycin (all from Gibco) and 10% FCS (PAA). Normal primary human epidermal keratinocytes (NHEKs) were purchased from Lonza and PromoCell, respectively. Cells were cultured in Keratinocyte basal growth medium (KBM; Lonza) containing KGM2 growth supplements including insulin, human epidermal growth factor, bovine pituitary extract, hydrocortisone, epinephrine, transferrin, and gentamicin/amphotericin B (Lonza). HaCaT cells were incubated in a 96-well-microtiter plate (2 × 10^4 cells/well) with Th17 cytokine-containing supernatants obtained from total CD4^+ T-cells that were polarized for 72 h in the presence of anti-CD3/CD28 antibodies and a Th17 polarization cocktail as described above. […] Cytokine concentrations in supernatants were determined from representative experiments and they contained approximately 150 pg/ml or 600 pg/ml of IL-17 in 10 μM or in 0.13 nM treated samples, respectively. The TNF-α concentration was similar in supernatants exposed to low or high Cpd A concentrations and was 4 ng/ml. To study the impact of the IL-17 cytokine, IL-17 in the supernatants and in the spike-in cocktails was neutralized by a 0.5 h pre-incubation with an IL-17-specific antibody [0.75 μg/ml; Secukinumab (Cosentyx®, Novartis)]. All cultures were incubated in triplicates and after a 24 h incubation period, HaCaT cells (6 × 10^4 cells/sample) and NHEKs (1 × 10^5 cells/sample) were harvested and further processed for qRT-PCR analysis.
Total RNA from human Th17 cells (6 × 10^5 cells), RORγt-RORE HUT78 cells (4 × 10^5 cells) and HaCaT cells (6 × 10^4 cells) was extracted using RNeasy kit including a DNAse I digestion step according to the manufacturer‘s protocol (Qiagen). Frozen skin biopsies (8 mm punches) were resuspended in RLT buffer (Qiagen) containing 1% β-mercaptoethanol and homogenized using a Precellys-Cryolys device (Bertin Instruments) according to the manufacturer's instructions. cDNAs were prepared with the High Capacity cDNA Reverse Transcription Kit (Applied Biosystems). Quantitative RT-PCR analysis was performed using a TaqManViiA7 (Applied Biosystems). All runs were accompanied by the internal control gene human β-glucoronidase (Gus) (431088E). The samples were run in triplicate or in hexaplicate and normalized to Gus using the ΔΔCt method to provide arbitrary units representing relative expression levels. The following Taqman probes were used for RT-PCR (Thermo Scientific): RORC (Hs01076112_m1), IL17A (Hs00936345_m1), IL22 (Hs01574154_m1), IL26 (Hs00218189_m1), IL23R (Hs00332759_m1), CCR6 (Hs00218189_m1), NFKBIZ (Hs00355476_m), DEFB4A (Hs00823638_m1), IL36G (Hs00219742_m1), and CCL20 (Hs00355476_m1).

[3] = molecular target: T1, human RORγt ligand binding domain (264-518), His6-tagged (human, UniProt P51449-1 264-518); assay: FRET or BRET; TR-FRET in solution: 6 nM His6-tagged RORγt-LBD, 90 nM biotinylated RIP140 co-activator peptide, 0.45 nM Cy5-labeled streptavidin, 1.5 nM Europium-labeled anti-His6 antibody; 1 h incubation; emissions at 615 and 665 nm; displacement by the small molecules Cpd A or SR2211; settings: both partners purified
T1 construct: also called RORγt-LBD; His6-tagged RORγt-LBD; source: produced at Novartis
T1 sequence (looked up): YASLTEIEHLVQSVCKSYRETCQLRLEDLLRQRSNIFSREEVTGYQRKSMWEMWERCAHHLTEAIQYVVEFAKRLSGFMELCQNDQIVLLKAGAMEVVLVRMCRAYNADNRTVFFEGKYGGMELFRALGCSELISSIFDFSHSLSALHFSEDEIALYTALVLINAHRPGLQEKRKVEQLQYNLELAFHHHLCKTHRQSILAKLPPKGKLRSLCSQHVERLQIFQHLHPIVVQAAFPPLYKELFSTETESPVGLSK

C[C@@H]1CCN(C(=O)CC#N)C[C@@H]1N(C)c1ncnc2[nH]ccc12 [CP690550, reference compound]
IL-21-induced STAT3 activity (pY705-STAT3) [1]: blocked

OC(c1ccc(-c2ccc(CN3CCN(Cc4ccncc4)CC3)cc2)c(F)c1)(C(F)(F)F)C(F)(F)F [SR2211, reference compound]
IC50 [2]: 257 ± 181 nM
IC50 (total human CD4+ T-cells): 1480 ± 739 nM

Secukinumab: neutralizing IL-17-selective antibody (Cosentyx, Novartis)
NFKBIZ, DEFB4A, CCL20, IL36G gene expression in NHEKs (spike-in) (NHEKs): reduced gene expression
IL36G expression in HaCaT after IL-17 neutralization in Th17 supernatants (HaCaT keratinocytes; 0.75 μg/ml): moderate inhibition
IL-17A/TNFα-mediated gene expression in HaCaT (spike-in) (HaCaT keratinocytes; 0.75 μg/ml pre-incubation of cytokines, similar to TNFα-induced levels): significantly impaired
IL-17 activated transcripts in HaCaT after IL-17 neutralization in Th17 supernatants (HaCaT keratinocytes; 0.75 μg/ml, to levels seen with Th17 cytokines only): further downregulation

B1: biotinylated RIP140 derived co-activator peptide (peptide)
peptide: {Biotin-Ahx}-NSHQKVTLLQLLLGHKNEEN-NH2
SMILES: CC(C)C[C@H](NC(=O)[C@H](CC(C)C)NC(=O)[C@H](CC(C)C)NC(=O)[C@H](CCC(N)=O)NC(=O)[C@H](CC(C)C)NC(=O)[C@H](CC(C)C)NC(=O)[C@@H](NC(=O)[C@@H](NC(=O)[C@H](CCCCN)NC(=O)[C@H](CCC(N)=O)NC(=O)[C@H](Cc1c[nH]cn1)NC(=O)[C@H](CO)NC(=O)[C@H](CC(N)=O)NC(=O)CCCCCNC(=O)CCCC[C@@H]1SC[C@@H]2NC(=O)N[C@@H]21)C(C)C)[C@@H](C)O)C(=O)NCC(=O)N[C@@H](Cc1c[nH]cn1)C(=O)N[C@@H](CCCCN)C(=O)N[C@@H](CC(N)=O)C(=O)N[C@@H](CCC(=O)O)C(=O)N[C@@H](CCC(=O)O)C(=O)N[C@@H](CC(N)=O)C(N)=O
notes: also called RIP140 peptide; source: bought: Thermo Scientific
binding result [3]: binds
